Test [1] has as its system Candida albicans. Nature of the test: Antimicrobial activity against fluconazole resistant Candida albicans isolate 3795 expressing high levels of ERG11 and UPC2 mRNA by microdilution method. The class given is functional. (In general: Broth dilution looks for growth in wells or tubes with falling amounts of substance.)
Test [2] relates to Candida albicans. The test is described as follows: Antimicrobial activity against Candida albicans isolate SC5314 expressing UPC2 G648D/UPC2 G648D double mutant alleles by microdilution method relative wild type. The class given is functional.
Test [3] deals with Candida albicans. Nature of the test: Antimicrobial activity against fluconazole susceptible Candida albicans isolate 5052 expressing low levels of ERG11 and UPC2 mRNA by microdilution method. The class given is functional.
The test system of test [4] is Candida albicans. The test is described as follows: Antimicrobial activity against Candida albicans isolate SC5314 expressing UPC2/UPC2 G648D mutant allele by microdilution method relative wild type. The class given is functional.
The test system of test [5] is Candida albicans. Nature of the test: Antimicrobial activity against fluconazole susceptible Candida albicans isolate 1002 expressing low levels of ERG11 and UPC2 mRNA by microdilution method. It is filed as functional.
Test [6] deals with Candida albicans. Nature of the test: Antimicrobial activity against fluconazole resistant Candida albicans isolate 1619 expressing high levels of ERG11 and UPC2 mRNA by microdilution method. The class given is functional.
For test [7], the system named is Candida albicans. The test is described as follows: Antimicrobial activity against fluconazole susceptible Candida albicans 5054 expressing low levels of ERG11 and UPC2 mRNA by microdilution method. The class given is functional.
Test [8] deals with Candida albicans. The test is described as follows: Antimicrobial activity against Candida albicans isolate SC5314 expressing UPC2/UPC2 A643T mutant allele by microdilution method relative wild type. It is filed as functional, organism-based.
The test system of test [9] is Candida albicans. The test is described as follows: Antimicrobial activity against fluconazole susceptible Candida albicans isolate 580 expressing low levels of ERG11 and UPC2 mRNA by microdilution method. The class given is functional.
In test [10] the test system is Candida albicans. Nature of the test: Antimicrobial activity against fluconazole resistant Candida albicans isolate 2440 expressing high levels of ERG11 and UPC2 mRNA by microdilution method. It is filed as functional.
Test [11] relates to Candida albicans. The test is described as follows: Antimicrobial activity against Candida albicans isolate SC5314 expressing UPC2 G648D/UPC2 A643T double mutant alleles by microdilution method relative wild type. It is filed as functional, organism-based.
For test [12], the system named is Candida albicans. The test is described as follows: Antimicrobial activity against fluconazole susceptible Candida albicans isolate 945 expressing low levels of ERG11 and UPC2 mRNA by microdilution method. It is filed as functional.

SMILES strings stand for the structures. ≈ marks a conversion by molar mass, not a printed value. Calls of active or inactive are those of the source. No cut-off for these calls is given here.

For orientation: MIC means the least concentration at which growth counts as inhibited.

With `OC(Cn1cncn1)(Cn1cncn1)c1ccc(F)cc1F` [FLUCONAZOLE], the MIC in test [1] is greater than 64 µg/mL; in test [3], 32 µg/mL (≈ 104 µM); in test [5], 0.25 µg/mL (≈ 0.816 µM); in test [6], 32 µg/mL (≈ 104 µM); in test [7] it was 4 µg/mL (≈ 13.1 µM); in test [9], 1 µg/mL (≈ 3.27 µM). The MIC in test [10] worked out at 32 µg/mL (≈ 104 µM); in test [12], 4 µg/mL (≈ 13.1 µM). In addition, the Ratio in [2] is on record as 8; in test [4], 4. Moreover, the MIC entry in test [8] and in test [11] was “inactive” each time.

Values taken from ChEMBL document CHEMBL1212765, “An A643T mutation in the transcription factor Upc2p causes constitutive ERG11 upregulation and increased fluconazole resistance in Candida albicans” (2010).
